# In patent publication US7528148B2, “Pyrazolo[3,4-B]pyridine compounds, and their use as phosphodiesterase inhibitors” (Glaxo Group Limited, priority 2002, dated 2009):
# Tests used:
# [1] = target: T1, PDE4B (human recombinant) (Homo sapiens, UniProt Q07343); experiment: PDE4B inhibition, radioactive SPA or IMAP fluorescence polarisation (FP) assay; assay type: biochemical; details: one reading or average of ca. 2-6 readings, accurate only to about ±0.5 log unit, read-out: PDE4B pIC50 (±about 0.5) (converted)
# T1 construct: made in house; host or cells: Saccharomyces cerevisiae strain GL62 (PDE-deficient)
# T1 sequence (Q07343 1-564 isoform Q07343-2): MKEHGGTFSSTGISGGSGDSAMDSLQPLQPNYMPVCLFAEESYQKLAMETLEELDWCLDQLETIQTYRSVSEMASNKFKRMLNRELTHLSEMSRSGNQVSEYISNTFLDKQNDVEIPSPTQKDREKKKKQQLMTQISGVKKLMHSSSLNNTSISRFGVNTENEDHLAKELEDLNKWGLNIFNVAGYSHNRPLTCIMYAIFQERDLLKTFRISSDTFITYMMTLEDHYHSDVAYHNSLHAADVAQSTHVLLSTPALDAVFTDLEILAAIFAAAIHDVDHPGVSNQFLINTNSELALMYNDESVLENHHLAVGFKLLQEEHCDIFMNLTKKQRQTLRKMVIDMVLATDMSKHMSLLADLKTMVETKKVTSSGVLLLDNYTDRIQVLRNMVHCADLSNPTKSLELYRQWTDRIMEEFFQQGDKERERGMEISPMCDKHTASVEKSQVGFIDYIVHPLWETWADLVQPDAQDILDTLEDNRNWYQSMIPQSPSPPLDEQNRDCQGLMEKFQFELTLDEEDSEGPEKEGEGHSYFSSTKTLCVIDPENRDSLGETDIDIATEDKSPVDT
# Excerpt: Human recombinant PDE4B, in particular the 2B splice variant thereof (HSPDE4B2B), is disclosed in WO 94/20079 and also M. M. McLaughlin et al., “A low Km, rolipram-sensitive, cAMP-specific phosphodiesterase from human brain: cloning and expression of cDNA, biochemical characterisation of recombinant protein, and tissue distribution of mRNA”, J. Biol. Chem., 1993, 268, 6470-6476. Human recombinant PDE4B was expressed in the PDE-deficient yeast Saccharomyces cerevisiae strain GL62. 100,000×g supernatant fractions of yeast cell lysates were used for PDE4B assays and inhibitor studies.
# The ability of compounds to inhibit catalytic activity at PDE4B or 4D (human recombinant), PDE3 (from bovine aorta) or PDE5 (human recombinant) or PDE6 (from bovine retina) was determined by Scintillation Proximity Assay (SPA) in 96-well format. Test compounds (preferably as a solution in DMSO, e.g. about 2 microlitre (ul) volume of DMSO solution) were preincubated at ambient temperature (room temperature, e.g. 19-23° C.) in Wallac Isoplates (code 1450-514) with PDE enzyme in 50 mM Tris-HCl buffer pH 7.5, 8.3 mM MgCl2, 1.7 mM EGTA, 0.05% (w/v) bovine serum albumin for 10-30 minutes (usually 30 minutes). The enzyme concentration was adjusted so that no more than 20% hydrolysis of the substrate defined below occurred in control wells without compound, during the incubation. For PDE3, PDE4B and PDE4D assays, [5′,8-^3H]Adenosine 3′,5′-cyclic phosphate (Amersham Pharmacia Biotech, code TRK.559; or Amersham Biosciences UK Ltd, Pollards Wood, Chalfont St Giles, Buckinghamshire HP8 4SP, UK) was added to give 0.05 uCi per well and ˜10 nM final concentration. For the PDE5 and PDE6 assay [8-^3H]Guanosine 3′,5′-cyclic phosphate (Amersham Pharmacia Biotech, code TRK.392) was added to give 0.05 uCi per well and ˜36 nM final concentration. Plates, preferably containing approx. 100 ul volume of assay mixture, were mixed on an orbital shaker for 5 minutes and incubated at ambient temperature for 1 hour. Phosphodiesterase SPA beads (Amersham Pharmacia Biotech, code RPNQ 0150) were added (˜1 mg per well) to terminate the assay. Plates were sealed and shaken and allowed to stand at ambient temperature for 35 minutes to 1 hour (preferably 35 minutes) to allow the beads to settle. Bound radioactive product was measured using a WALLAC TRILUX 1450 Microbeta scintillation counter. For inhibition curves, 10 concentrations ([…]) of each compound were assayed. Curves were analysed using ActivityBase and XLfit (ID Businesss Solutions Limited, 2 Ocean Court, Surrey Research Park, Guildford, Surrey GU2 7QB, United Kindgom) Results were expressed as pIC50 values.
# The ability of compounds to inhibit catalytic activity at PDE4B (human recombinant) or PDE4D (human recombinant) was determined by IMAP Fluorescence Polarisation (FP) assay (IAP Explorer kit, available from Molecular Devices Corporation, Sunnydale, Calif., USA; Molecular Devices code: R8062) in 384-well format. The IMAP FP assay is able to measure PDE activity in an homogenous, non-radioactive assay format. The FP assay uses the ability of immobilised trivalent metal cations, coated onto nanoparticles (tiny beads), to bind the phosphate group of Fl-AMP that is produced on the hydrolysis of fluorescein-labelled (Fl) cyclic adenosine mono-phosphate (Fl-cAMP) to the non-cyclic Fl-AMP form. […] Binding of Fl-AMP product to the beads (coated with the immobilised trivalent cations) slows the rotation of the bound Fl-AMP and leads to an increase in the fluorescence polarisation ratio of parallel to perpendicular light. Inhibition of the PDE reduces/inhibits this signal increase. […]
# [2] = tested on: LPS-induced pulmonary neutrophilia in rats; experiment: In Vivo Assay 1: LPS-induced pulmonary neutrophilia in rats, orally administered PDE4 inhibitors; details: po, rat, LPS aerosol 30 min after dosing, BAL 4 hours post LPS, read-out: neutrophilia-inhibition ED50
# Excerpt: In Vivo Assay 1. LPS-induced Pulmonary Neutrophilia in Rats: Effect of Orally Administered PDE4 Inhibitors
# The purpose of this neutrophilia model is to study the potentially anti-inflammatory effects in vivo of orally administered PDE4 inhibitors on neutrophilia induced by inhalation of aerosolized lipopolysaccharide (LPS), modelling the neutrophil inflammatory component(s) of COPD. See the literature section below for scientific background.
# Male Lewis rats (Charles River, Raleigh, N.C., USA) weighing approximately 300-400 grams are pretreated with either (a) test compound suspended in 0.5% methylcellulose (obtainable from Sigma-Aldrich, St Louis, Mo., USA) in water or (b) vehicle only, delivered orally in a dose volume of 10 ml/kg. Generally, dose response curves are generated using the following doses of PDE4 inhibitors: 10.0, 2.0, 0.4, 0.08 and 0.016 mg/kg. Thirty minutes following pretreatment, the rats are exposed to aerosolized LPS (Serotype E. Coli 026:B6 prepared by trichloroacetic acid extraction, obtainable from Sigma-Aldrich, St Louis, Mo., USA), generated from a nebulizer containing a 100 μg/ml LPS solution. Rats are exposed to the LPS aerosol at a rate of 4 L/min for 20 minutes. LPS exposure is carried out in a closed chamber with internal dimensions of 45 cm length×24 cm width×20 cm height. The nebulizer and exposure chamber are contained in a certified fume hood. At 4 hours-post LPS exposure the rats are euthanized by overdose with pentobarbital at 90 mg/kg, administered intraperitoneally. Bronchoalveolar lavage (BAL) is performed through a 14 gauge blunt needle into the exposed trachea. Five, 5 ml washes are performed to collect a total of 25 ml of BAL fluid. Total cell counts and leukocyte differentials are performed on BAL fluid in order to calculate neutrophil influx into the lung. Percent neutrophil inhibition at each dose (cf. vehicle) is calculated and a variable slope, sigmoidal dose-response curve is generated, usually using Prism Graph-Pad. The dose-response curve is used to calculate an ED50 value (in mg per kg of body weight) for inhibition by the PDE4 inhibitor of the LPS-induced neutrophilia
# Alternative method and results: In an alternative embodiment of the procedure, a single oral dose of 10 mg/kg or 1 mg/kg of the PDE4 inhibitor (or vehicle) is administered to the rats, and percent neutrophil inhibition is calculated and reported for that specific dose.
IC50 [1],SMILES,ED50 [2]
25.1 nM,"CCn1ncc2c(NC3CCOCC3)c(-c3nnc(C)o3)cnc21 [Example 14, 1-Ethyl-5-(5-methyl-1,3,4-oxadiazol-2-yl)-N-(tetrahydro-2H-pyran-4-yl)-1H-pyrazolo[3,4-b]pyridin-4-amine]",0.03 to 1 mg/kg
0.794 to 31.6 nM,"CCn1ncc2c(NC3CCOCC3)c(-c3nnc(C(C)(C)C)o3)cnc21 [Example 17, 5-(S-Tert-butyl-1,3,4-oxadiazol-2-yl)-1-ethyl-N-(tetrahydro-2H-pyran-4-yl)-1H-pyrazolo[3,4-b]pyridin-4-amine]",0.03 to 1 mg/kg
7.94 nM,"CCn1ncc2c(NC3CCOCC3)c(-c3nnc(CS(C)(=O)=O)o3)cnc21 [Example 23, 1-Ethyl-5-{5-[(methylsulfonyl)methyl]-1,3,4-oxadiazol-2-yl}-N-(tetrahydro-2H-pyran-4-yl)-1H-pyrazolo[3,4-b]pyridin-4-amine]",0.03 to 1 mg/kg
31.6 nM,"CCn1ncc2c(NC3CCOCC3)c(-c3nnc(CN4CCN(C)CC4)o3)cnc21 [Example 35, 1-Ethyl-5-{5-[(4-methylpiperazin-1-yl)methyl]-1,3,4-oxadiazol-2-yl}-N-(tetrahydro-2H-pyran-4-yl)-1H-pyrazolo[3,4-b]pyridin-4-amine]",0.03 to 1 mg/kg
0.794 to 31.6 nM,"CCn1ncc2c(NC3CCOCC3)c(-c3nnc(C4CCOCC4)o3)cnc21 [Example 38, 1-Ethyl-N-(tetrahydro-2H-pyran-4-yl)-5-[5-(tetrahydro-2H-pyran-4-yl)-1,3,4-oxadiazol-2-yl]-1H-pyrazolo[3,4-b]pyridin-4-amine]",0.03 to 1 mg/kg
